# According to publication PMC10577698, “Development of Novel ^11C-Labeled Selective Orexin-2 Receptor Radioligands for Positron Emission Tomography Imaging” (ACS Medicinal Chemistry Letters, 2023):
# Read-outs that look alike come from different tables or passages of the source.
# How the values were obtained:
# CYP19A = molecular target: T1, CYP19A (Homo sapiens, UniProt P11511)
# T1 sequence (P11511 1-503): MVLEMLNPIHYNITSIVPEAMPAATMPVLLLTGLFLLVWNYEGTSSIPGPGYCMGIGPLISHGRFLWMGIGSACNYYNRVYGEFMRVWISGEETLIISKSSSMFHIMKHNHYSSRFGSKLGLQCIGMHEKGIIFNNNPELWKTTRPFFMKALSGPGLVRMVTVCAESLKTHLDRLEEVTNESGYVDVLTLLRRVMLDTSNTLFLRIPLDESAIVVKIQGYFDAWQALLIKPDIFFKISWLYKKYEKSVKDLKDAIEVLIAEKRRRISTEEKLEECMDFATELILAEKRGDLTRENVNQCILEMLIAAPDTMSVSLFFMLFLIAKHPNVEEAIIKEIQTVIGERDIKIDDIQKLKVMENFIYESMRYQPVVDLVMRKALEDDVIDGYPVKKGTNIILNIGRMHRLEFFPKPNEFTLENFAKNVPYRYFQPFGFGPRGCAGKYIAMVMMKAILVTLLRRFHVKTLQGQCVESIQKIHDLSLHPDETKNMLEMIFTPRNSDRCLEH
# CYP2C9 = CYP2C9 (Homo sapiens, UniProt P11712); experiment: biochemical
# Sequence of CYP2C9 (P11712 whole entry, species assumed): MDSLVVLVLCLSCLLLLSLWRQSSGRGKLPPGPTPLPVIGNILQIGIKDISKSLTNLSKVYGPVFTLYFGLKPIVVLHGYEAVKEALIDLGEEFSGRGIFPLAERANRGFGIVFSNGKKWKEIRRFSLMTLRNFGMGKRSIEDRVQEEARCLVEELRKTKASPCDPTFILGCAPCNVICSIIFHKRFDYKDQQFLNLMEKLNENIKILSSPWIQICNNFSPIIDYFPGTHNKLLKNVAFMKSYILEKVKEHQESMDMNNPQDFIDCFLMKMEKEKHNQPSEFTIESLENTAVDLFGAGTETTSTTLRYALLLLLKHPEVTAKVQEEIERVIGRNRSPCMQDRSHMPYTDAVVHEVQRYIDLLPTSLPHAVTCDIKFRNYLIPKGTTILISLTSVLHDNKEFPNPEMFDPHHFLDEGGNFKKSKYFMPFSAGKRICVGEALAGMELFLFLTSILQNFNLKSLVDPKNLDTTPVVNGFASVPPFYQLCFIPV
# Procedure: (§1) Human OX2 receptor binding (agonist radioligand) assays were finished by Gifford
# (§2) Bioscience Limited. Competition binding assays were carried out in 96-well polypropylene
# (§3) plates in a final volume of 250 µL per well. To each well were added 150 µL Human OX2
# (§4) Receptor Membranes (MultiSpan Inc, MC1034), 50 µL of non-specific or test compound
# (§5) or buffer (50 mM Tris, 5 mM MgCl2, 0.1 mM EDTA, pH 7.4), and 50 µL radioligand
# (§6) ([3H]EMPA) solution in the buffer. The plate was incubated at 30 °C for 60 minutes with
# (§7) gentle agitation. The incubation was stopped by vacuum filtration onto presoaked (Tris
# (§8) buffer with PEI) GF/C filters using a 96-well FilterMate™ harvester, followed by 5 washes
# (§9) with ice-cold wash buffer (50 mM Tris, 5 mM MgCl2, 0.1 mM EDTA, pH 7.4). Filters were
# (§10) then dried under a warm air stream and sealed in polyethylene, a scintillation cocktail was
# (§11) specific binding. Data were fitted using the non-linear curve fitting routines in Prism®
# (§12) (Graphpad Software Inc) to determine IC50. Ki was subsequently calculated using the
# (§13) CYP enzymes and hERG inhibition assays were finished by Reaction Biology Corporation.
# CYP2C19 = CYP2C19 (Homo sapiens, UniProt P33261); experiment: biochemical
# Sequence of CYP2C19 (P33261 whole entry, species assumed): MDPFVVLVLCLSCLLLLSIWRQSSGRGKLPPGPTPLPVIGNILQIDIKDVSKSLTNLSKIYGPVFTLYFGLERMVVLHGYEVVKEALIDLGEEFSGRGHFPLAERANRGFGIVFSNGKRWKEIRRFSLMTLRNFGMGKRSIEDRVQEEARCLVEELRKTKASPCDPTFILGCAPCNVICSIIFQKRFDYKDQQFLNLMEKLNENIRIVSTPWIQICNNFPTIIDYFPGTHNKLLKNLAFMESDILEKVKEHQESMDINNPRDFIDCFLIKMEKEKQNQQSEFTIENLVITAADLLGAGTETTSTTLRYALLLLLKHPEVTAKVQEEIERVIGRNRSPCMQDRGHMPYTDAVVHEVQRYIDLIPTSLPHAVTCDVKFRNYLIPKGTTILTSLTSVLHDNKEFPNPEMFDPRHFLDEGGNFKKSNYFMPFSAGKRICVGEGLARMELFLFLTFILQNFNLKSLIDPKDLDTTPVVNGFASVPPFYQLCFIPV
# From the text: as §13
# CYP2D6 = CYP2D6 (Homo sapiens, UniProt P10635); experiment: biochemical
# Sequence of CYP2D6 (P10635 whole entry, species assumed): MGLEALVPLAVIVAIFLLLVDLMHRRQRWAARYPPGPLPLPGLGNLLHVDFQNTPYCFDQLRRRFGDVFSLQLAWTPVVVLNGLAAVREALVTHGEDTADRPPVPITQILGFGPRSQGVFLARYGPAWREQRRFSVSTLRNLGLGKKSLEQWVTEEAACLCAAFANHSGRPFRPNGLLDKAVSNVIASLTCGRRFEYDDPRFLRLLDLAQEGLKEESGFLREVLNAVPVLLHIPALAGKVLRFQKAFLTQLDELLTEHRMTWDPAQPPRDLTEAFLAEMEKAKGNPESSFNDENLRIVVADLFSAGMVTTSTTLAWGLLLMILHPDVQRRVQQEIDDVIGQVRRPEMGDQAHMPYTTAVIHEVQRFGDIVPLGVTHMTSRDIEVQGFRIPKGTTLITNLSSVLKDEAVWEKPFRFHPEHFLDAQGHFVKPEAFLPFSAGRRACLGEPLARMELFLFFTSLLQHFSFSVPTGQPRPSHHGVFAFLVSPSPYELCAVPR
# From the text: as §13
# CYP3A4 = CYP3A4 (Homo sapiens, UniProt P08684); experiment: biochemical
# Sequence of CYP3A4 (P08684 whole entry, species assumed): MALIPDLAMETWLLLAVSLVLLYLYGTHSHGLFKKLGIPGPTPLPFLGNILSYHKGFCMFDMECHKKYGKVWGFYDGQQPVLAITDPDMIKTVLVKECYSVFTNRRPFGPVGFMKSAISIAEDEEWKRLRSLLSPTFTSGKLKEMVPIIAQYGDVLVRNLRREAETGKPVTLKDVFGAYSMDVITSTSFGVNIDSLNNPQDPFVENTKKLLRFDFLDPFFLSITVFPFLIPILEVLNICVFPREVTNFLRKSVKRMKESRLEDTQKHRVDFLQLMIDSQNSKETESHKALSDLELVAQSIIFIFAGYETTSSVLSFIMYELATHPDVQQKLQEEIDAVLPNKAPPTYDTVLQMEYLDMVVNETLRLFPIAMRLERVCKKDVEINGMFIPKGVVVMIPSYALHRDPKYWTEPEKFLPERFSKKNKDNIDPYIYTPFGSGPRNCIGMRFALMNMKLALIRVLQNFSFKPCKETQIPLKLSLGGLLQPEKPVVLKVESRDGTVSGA
# From the text: as §13
# hERG = hERG (Homo sapiens, UniProt Q12809); experiment: biochemical
# Sequence of hERG (Q12809 whole entry): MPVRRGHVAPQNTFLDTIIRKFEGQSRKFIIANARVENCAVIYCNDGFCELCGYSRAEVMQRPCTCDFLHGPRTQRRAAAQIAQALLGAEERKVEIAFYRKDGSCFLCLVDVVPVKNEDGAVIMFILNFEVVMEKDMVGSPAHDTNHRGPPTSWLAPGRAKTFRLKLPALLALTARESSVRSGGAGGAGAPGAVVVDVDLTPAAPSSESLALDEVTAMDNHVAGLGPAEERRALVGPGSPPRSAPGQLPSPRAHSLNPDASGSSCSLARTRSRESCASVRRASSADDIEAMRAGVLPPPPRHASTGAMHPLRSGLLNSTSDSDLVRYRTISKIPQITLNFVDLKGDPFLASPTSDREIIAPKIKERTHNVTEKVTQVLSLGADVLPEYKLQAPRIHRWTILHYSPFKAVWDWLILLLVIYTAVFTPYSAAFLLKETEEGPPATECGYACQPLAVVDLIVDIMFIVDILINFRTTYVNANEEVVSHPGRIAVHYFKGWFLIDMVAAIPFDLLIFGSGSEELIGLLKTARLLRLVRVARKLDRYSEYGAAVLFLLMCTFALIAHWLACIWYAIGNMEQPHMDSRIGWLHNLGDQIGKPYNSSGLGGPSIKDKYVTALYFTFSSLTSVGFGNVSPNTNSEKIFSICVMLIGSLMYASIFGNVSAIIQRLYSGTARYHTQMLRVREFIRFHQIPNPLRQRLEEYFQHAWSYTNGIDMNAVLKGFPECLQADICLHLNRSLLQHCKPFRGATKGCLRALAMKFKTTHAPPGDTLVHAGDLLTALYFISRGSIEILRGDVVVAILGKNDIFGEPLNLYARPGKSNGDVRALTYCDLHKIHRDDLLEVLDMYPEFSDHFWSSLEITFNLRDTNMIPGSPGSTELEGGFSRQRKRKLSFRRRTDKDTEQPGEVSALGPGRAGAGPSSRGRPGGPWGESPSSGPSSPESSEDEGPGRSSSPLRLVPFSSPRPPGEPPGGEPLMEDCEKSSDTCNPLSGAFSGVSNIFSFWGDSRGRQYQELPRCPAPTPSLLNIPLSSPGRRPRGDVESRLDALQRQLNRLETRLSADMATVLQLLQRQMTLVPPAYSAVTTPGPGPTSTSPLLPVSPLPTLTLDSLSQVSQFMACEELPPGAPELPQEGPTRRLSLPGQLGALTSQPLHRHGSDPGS
# Procedure: as §1, §2, §3, §4, §5, §6, §7, §8, §9, §10, §11, §12, §13
# CYP1A2 = molecular target: T2, CYP1A2 (Homo sapiens, UniProt P05177); experiment: CYP450 inhibition assay
# T2 sequence (P05177 1-516): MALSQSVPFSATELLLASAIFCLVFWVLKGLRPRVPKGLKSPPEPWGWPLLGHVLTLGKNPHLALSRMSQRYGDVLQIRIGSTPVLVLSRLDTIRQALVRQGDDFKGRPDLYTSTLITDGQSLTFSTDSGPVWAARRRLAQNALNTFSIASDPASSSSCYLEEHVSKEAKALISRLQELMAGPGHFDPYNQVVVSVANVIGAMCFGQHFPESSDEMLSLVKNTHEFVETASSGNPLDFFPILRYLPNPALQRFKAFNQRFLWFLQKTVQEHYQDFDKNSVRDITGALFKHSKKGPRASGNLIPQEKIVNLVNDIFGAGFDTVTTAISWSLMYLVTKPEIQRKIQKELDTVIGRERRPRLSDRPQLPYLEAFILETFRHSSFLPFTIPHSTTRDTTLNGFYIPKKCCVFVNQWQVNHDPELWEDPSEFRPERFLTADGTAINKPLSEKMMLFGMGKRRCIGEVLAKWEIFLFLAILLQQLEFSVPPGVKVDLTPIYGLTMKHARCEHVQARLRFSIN
# Procedure: as §1, §2, §3, §4, §5, §6, §7, §8, §9, §10, §11, §12, §13
# orexin 2 receptors = molecular target: T3, orexin 2 receptors (Rattus norvegicus, UniProt P56719); experiment: In vitro autoradiography in rat brain sections; details: for effect of blocker on radioactivity in OX2-rich brain regions: blocker 10 μM, autoradiography with [11C]1 or [11C]2, rat brain sections; for in vitro binding specificity: rat brain sections, autoradiography
# T3 sequence (P56719 1-460): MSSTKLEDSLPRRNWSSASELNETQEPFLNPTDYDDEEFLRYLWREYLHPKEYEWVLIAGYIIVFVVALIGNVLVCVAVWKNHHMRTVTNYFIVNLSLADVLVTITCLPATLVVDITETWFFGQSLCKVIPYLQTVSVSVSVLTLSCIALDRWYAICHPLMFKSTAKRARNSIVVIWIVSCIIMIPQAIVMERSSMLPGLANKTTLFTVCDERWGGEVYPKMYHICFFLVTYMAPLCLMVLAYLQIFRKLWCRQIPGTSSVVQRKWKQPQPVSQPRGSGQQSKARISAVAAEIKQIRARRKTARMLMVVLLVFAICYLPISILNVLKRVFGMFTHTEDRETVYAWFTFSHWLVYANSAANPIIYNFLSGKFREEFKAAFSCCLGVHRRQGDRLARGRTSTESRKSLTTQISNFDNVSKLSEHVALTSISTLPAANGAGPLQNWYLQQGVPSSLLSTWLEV
# Procedure: 2.5 In vitro autoradiography
# The method for in vitro autoradiography was slightly modified from previous reports. 5 Rat
# brain was cut into 20 μm sections, stored at −80 °C, and ready for the experiment. The rat
# brain sections were preincubated with Tris−HCl buffer (50 mM) containing MgCl2 (2 mM)
# and CaCl2 (1.2 mM) for 20 min at ambient temperature, followed by incubation with [11C]1
# added to incubation solution. Then the brain sections were washed with ice-cold buffer for
# three times and dipped in cold distilled water for 10 s. The brain sections were dried with
# cold air. The exposure time for the phosphor plate in the autoradiography study is 1 h .
# [1] = molecular target: peripheral benzodiazepine receptor (Rattus norvegicus, UniProt P16257); experiment: Off-target binding (NIMH PDSP), peripheral benzodiazepine receptor
# human orexin 2 receptor = molecular target: T4, human orexin 2 receptor (Homo sapiens, UniProt O43614); experiment: Human OX2 receptor radioligand ([3H]EMPA) competition binding assay; details: for Selectivity (OX2R/OX1R): Figure 4b
# T4 sequence (O43614 1-444): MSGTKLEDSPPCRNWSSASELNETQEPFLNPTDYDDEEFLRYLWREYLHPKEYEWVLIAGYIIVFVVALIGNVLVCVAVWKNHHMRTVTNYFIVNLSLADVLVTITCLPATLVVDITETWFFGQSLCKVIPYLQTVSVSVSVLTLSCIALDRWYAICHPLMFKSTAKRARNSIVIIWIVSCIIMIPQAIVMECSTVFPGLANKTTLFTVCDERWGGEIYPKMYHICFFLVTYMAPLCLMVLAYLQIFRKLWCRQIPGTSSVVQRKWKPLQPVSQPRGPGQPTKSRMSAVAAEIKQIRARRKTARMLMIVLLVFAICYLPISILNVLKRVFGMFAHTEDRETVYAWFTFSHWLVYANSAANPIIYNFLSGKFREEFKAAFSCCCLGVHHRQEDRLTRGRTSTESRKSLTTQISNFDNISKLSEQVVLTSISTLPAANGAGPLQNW
# Procedure: as §1, §2, §3, §4, §5, §6, §7, §8, §9, §10, §11, §12, §13
# [2] = Stability of radiotracer in saline; type: physicochemical; details: within 90 min
# Procedure: Based on the favorable in vitro pharmacological and ADME properties, compounds 1 and 2 were labeled with carbon-11 and evaluated as OX2 PET radioligands. […] The reaction mixtures were then diluted with the HPLC buffer and purified by a semipreparative reverse HPLC to give [^11C]1 and [^11C]2 in 71% and 20% radiochemical yields (decay-corrected) with the molar activities of 210 GBq/μmol and 185 GBq/μmol, respectively.
# rat brain = experiment: Dynamic PET imaging in Sprague-Dawley rats
# Procedure: The imaging studies were conducted according to the previous literature6,7 with minor
# modifications. PET scans were carried out by an Inveon PET scanner. Sprague-Dawley
# rats were kept under anesthesia with 1-2% (v/v) isoflurane during the scan. The radiotracer
# [11C]1 (37–42 MBq) or [11C]2 (32–37 MBq) was injected via a preinstalled catheter into
# the tail vein. A dynamic scan in 3D mode was acquired for 60 min. For blocking studies, a
# solution of elacridar (3 mg/kg) in 300 µL saline containing 10% DMSO, 40% polyethylene
# glycol, and 5% Tween® 80 was injected at 20 min via the pre-embedded tail vein catheter
# before PET tracer injection. An MR template of SD rats was applied for PET/MR merged
# images. The radioactivity was decay-corrected and expressed as the standardized uptake
# value (SUV). SUV = (radioactivity per mL tissue / injected radioactivity) x body weight.
# OX2R = system: OX2R; design: method as in PMID 19751316; details: cited from earlier work
# [3] = SD rats pretreated with Elacridar 3 mg/kg 20 min before tracer
compound,measurement,setting,value
CCN(Cc1ccccc1)C(=O)CN(c1ccccc1OC)S(=O)(=O)c1ncccc1C [Compound 1],IC50,CYP19A,> 5 µM
same,IC50,CYP2C9,> 5 µM
same,IC50,CYP2C19,> 5 µM
same,IC50,CYP2D6,> 5 µM
same,IC50,CYP3A4,> 5 µM
same,IC50,hERG,> 100 µM
same,IC50,CYP1A2,> 5 µM
same,effect of blocker on radioactivity in OX2-rich brain regions,orexin 2 receptors,remarkably diminished the radioactivity
same,Ki,[1],0.253 µM
same,IC50,human orexin 2 receptor,0.0071 µM
same,Ki,human orexin 2 receptor,0.0036 µM
same,target selectivity OX2/OX1,human orexin 2 receptor,> 600 folds
same,Selectivity (OX2R/OX1R),human orexin 2 receptor,601
CCN(Cc1ccccc1)C(=O)CN(c1ccc(OC)nc1)S(=O)(=O)c1ncccc1C [Compound 2],IC50,CYP19A,> 5 µM
same,IC50,CYP2C9,> 5 µM
same,IC50,CYP2C19,> 5 µM
same,IC50,CYP2D6,> 5 µM
same,IC50,CYP3A4,> 5 µM
same,IC50,hERG,> 100 µM
same,IC50,CYP1A2,> 5 µM
same,effect of blocker on radioactivity in OX2-rich brain regions,orexin 2 receptors,remarkably diminished the radioactivity
same,Ki,human orexin 2 receptor,0.0022 µM
same,target selectivity OX2/OX1,human orexin 2 receptor,> 600 folds
same,Selectivity (OX2R/OX1R),human orexin 2 receptor,1220
same,IC50,"human orexin 2 receptor; read-out: IC50/OX2, [3H]EMPA competition, human OX2 receptor membranes",0.0044 µM
CCN(Cc1ccccc1)C(=O)CN(c1ccccc1O[11CH3])S(=O)(=O)c1ncccc1C [[^11C]1],stability in saline,[2],stable
same,in vitro binding specificity,orexin 2 receptors,good to excellent in vitro binding specificity
CCN(Cc1ccccc1)C(=O)CN(c1ccc(O[11CH3])nc1)S(=O)(=O)c1ncccc1C [[^11C]2],stability in saline,[2],stable
same,highest radioactivity levels in hippocampus and cerebellum,rat brain; [3],0.9 SUV
same,radioactivity level after washout in hippocampus and cerebellum,rat brain; [3],0.3 SUV
same,brain uptake,"rat brain; baseline PET, SD rats",poor brain uptake
same,highest radioactivity levels in hippocampus and cerebellum,"rat brain; baseline, SD rats, 2 min postadministration of tracer",around 0.4 SUV
same,radioactivity level after washout in hippocampus and cerebellum,"rat brain; baseline, SD rats, 60 min scan",0.2 SUV
same,bound radioactivity levels in hippocampus and cerebellum after blocking,"rat brain; preadministration of EMPA 1 mg/kg i.v., SD rats",did not remarkably reduce
same,in vitro binding specificity,orexin 2 receptors,good to excellent in vitro binding specificity
"orexin-B: endogenous neuropeptide ligand, a 28 amino acid peptide",selectivity toward OX2R against OX1R,OX2R,> 10 folds
